# According to patent US9896435B2, “N-pyrrolidinyl,N′-pyrazolyl-urea, thiourea, guanidine and cyanoguanidine compounds as TrkA kinase inhibitors” (Array BioPharma Inc., priority 2012, dated 2018):
# Key:
# Experiment in all cases: KinaseProfiler off-target kinase profiling
# Assay type in all cases: biochemical
# Conditions in all cases: 10 μM, ATP near Km
# PKD2 = PKD2 (Homo sapiens (Human), UniProt Q9BZL6)
# Summary of the method: (§1)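 Duplicate measurements were taken for compound at 10 μM with ATP near each kinase's Km. Values represent mean percent of control.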
# PKCtheta = PKCtheta (Homo sapiens (Human), UniProt Q04759)
# Summary of the method: as §1
# LOK = LOK (Homo sapiens (Human), UniProt O94804)
# Summary of the method: as §1
# PRKG1beta = PRKG1beta (Homo sapiens (Human), UniProt Q13976)
# Summary of the method: as §1
# CDK5/p35 = CDK5/p35 (Homo sapiens (Human), UniProt Q00535)
# Summary of the method: as §1
# EphB3 = EphB3 (Homo sapiens (Human), UniProt P54753)
# Summary of the method: as §1
# CHK1 = CHK1 (Homo sapiens (Human), UniProt O14757)
# Summary of the method: as §1
# TEC Activated = TEC Activated (Homo sapiens (Human), UniProt P42680)
# Summary of the method: as §1
# DDR2 = DDR2 (Homo sapiens (Human), UniProt Q16832)
# Summary of the method: as §1
# TSSK1 = TSSK1 (Homo sapiens (Human), UniProt Q9BXA7)
# Summary of the method: as §1
# DCAMKL2 = DCAMKL2 (Homo sapiens (Human), UniProt Q8N568)
# Summary of the method: as §1
# MAPKAP-K2 = MAPKAP-K2 (Homo sapiens (Human), UniProt P49137)
# Summary of the method: as §1
# SRPK2 = SRPK2 (Homo sapiens (Human), UniProt P78362)
# Summary of the method: as §1
# MKK4_m = MKK4_m (Mus musculus (Mouse), UniProt P47809)
# Summary of the method: as §1
# Syk = Syk (Homo sapiens (Human), UniProt P43405)
# Summary of the method: as §1
# STK33 = STK33 (Homo sapiens (Human), UniProt Q9BYT3)
# Summary of the method: as §1
# MELK = MELK (Homo sapiens (Human), UniProt Q14680)
# Summary of the method: as §1
# CLK3 = CLK3 (Homo sapiens (Human), UniProt P49761)
# Summary of the method: as §1
# KDR = KDR (Homo sapiens (Human), UniProt P35968)
# Summary of the method: as §1
# PKCalpha = PKCalpha (Homo sapiens (Human), UniProt P17252)
# Summary of the method: as §1
# Tie2 = Tie2 (Homo sapiens (Human), UniProt Q02763)
# Summary of the method: as §1
# ALK = ALK (Homo sapiens (Human), UniProt Q9UM73)
# Summary of the method: as §1
# IRAK4 = IRAK4 (Homo sapiens (Human), UniProt Q9NWZ3)
# Summary of the method: as §1
# Axl = Axl (Homo sapiens (Human), UniProt P30530)
# Summary of the method: as §1
# SGK2 = SGK2 (Homo sapiens (Human), UniProt Q9HBY8)
# Summary of the method: as §1
# Abl-P = Abl-P (Homo sapiens (Human), UniProt P00519)
# Summary of the method: as §1
# CDK7/cyclinH/MAT1 = CDK7/cyclinH/MAT1 (Homo sapiens (Human), UniProt P50613)
# Summary of the method: as §1
# CSK = CSK (Homo sapiens (Human), UniProt P41240)
# Summary of the method: as §1
# WNK3 = WNK3 (Homo sapiens (Human), UniProt Q9BYP7)
# Summary of the method: as §1
# Fes = Fes (Homo sapiens (Human), UniProt P07332)
# Summary of the method: as §1
# EphB2 = EphB2 (Homo sapiens (Human), UniProt P29323)
# Summary of the method: as §1
# Rsk1 = Rsk1 (Homo sapiens (Human), UniProt Q15418)
# Summary of the method: as §1
# Flt4 = Flt4 (Homo sapiens (Human), UniProt P35916)
# Summary of the method: as §1
# PAK4 = PAK4 (Homo sapiens (Human), UniProt O96013)
# Summary of the method: as §1
# TLK2 = TLK2 (Homo sapiens (Human), UniProt Q86UE8)
# Summary of the method: as §1
# CK1_y = tested on: CK1_y
# Summary of the method: as §1
# EphA3 = EphA3 (Homo sapiens (Human), UniProt P29320)
# Summary of the method: as §1
# EGFR = EGFR (Homo sapiens (Human), UniProt P00533)
# Summary of the method: as §1
# CAMK2g = CAMK2g (Homo sapiens (Human), UniProt Q13555)
# Summary of the method: as §1
# HIPK1 = HIPK1 (Homo sapiens (Human), UniProt Q86Z02)
# Summary of the method: as §1
# HIPK1, sequence (Q86Z02 whole entry): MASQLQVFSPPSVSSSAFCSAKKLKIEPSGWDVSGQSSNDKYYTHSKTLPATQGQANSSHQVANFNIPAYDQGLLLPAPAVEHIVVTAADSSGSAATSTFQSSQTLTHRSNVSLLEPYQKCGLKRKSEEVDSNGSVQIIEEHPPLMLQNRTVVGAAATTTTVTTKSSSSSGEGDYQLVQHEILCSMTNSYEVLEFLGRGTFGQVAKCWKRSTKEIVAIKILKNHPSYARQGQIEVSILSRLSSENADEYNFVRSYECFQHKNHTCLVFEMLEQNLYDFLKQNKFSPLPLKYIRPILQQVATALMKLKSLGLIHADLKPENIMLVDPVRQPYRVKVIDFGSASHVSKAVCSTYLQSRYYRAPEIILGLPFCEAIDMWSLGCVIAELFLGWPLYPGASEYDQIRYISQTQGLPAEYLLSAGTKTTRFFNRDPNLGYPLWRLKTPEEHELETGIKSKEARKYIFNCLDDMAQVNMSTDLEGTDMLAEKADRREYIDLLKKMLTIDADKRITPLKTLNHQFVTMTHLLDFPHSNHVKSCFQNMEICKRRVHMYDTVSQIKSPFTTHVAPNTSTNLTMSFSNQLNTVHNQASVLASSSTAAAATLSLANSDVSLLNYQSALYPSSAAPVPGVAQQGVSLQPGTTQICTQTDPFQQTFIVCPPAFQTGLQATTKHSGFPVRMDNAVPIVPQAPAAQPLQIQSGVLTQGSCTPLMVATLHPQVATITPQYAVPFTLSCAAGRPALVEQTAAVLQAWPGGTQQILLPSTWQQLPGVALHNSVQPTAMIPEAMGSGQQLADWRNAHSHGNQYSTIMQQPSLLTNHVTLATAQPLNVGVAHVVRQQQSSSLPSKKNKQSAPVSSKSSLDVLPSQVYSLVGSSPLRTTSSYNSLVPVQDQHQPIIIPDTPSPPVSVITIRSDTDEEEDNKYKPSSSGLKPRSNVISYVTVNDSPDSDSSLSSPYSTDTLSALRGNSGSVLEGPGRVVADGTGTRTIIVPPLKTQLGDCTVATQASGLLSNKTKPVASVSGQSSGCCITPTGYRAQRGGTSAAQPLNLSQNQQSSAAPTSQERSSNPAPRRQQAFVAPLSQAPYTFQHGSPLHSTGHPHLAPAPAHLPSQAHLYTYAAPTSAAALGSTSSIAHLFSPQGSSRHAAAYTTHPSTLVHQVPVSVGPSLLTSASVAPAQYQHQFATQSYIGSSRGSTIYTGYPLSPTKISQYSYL
# CLK3, sequence (P49761 whole entry): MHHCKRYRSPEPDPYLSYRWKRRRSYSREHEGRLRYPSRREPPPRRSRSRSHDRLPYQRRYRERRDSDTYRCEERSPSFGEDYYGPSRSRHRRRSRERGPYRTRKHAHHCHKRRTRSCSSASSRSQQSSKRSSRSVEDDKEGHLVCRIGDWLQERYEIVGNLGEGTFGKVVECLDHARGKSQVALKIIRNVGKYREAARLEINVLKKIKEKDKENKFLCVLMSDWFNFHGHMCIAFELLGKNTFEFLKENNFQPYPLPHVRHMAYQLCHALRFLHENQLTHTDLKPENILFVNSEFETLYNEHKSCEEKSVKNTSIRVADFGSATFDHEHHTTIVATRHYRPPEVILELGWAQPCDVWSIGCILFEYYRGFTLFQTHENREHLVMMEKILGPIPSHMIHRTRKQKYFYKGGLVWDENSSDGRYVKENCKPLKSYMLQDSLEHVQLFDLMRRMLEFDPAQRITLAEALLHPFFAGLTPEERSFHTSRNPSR
# PKCtheta, sequence (Q04759 whole entry): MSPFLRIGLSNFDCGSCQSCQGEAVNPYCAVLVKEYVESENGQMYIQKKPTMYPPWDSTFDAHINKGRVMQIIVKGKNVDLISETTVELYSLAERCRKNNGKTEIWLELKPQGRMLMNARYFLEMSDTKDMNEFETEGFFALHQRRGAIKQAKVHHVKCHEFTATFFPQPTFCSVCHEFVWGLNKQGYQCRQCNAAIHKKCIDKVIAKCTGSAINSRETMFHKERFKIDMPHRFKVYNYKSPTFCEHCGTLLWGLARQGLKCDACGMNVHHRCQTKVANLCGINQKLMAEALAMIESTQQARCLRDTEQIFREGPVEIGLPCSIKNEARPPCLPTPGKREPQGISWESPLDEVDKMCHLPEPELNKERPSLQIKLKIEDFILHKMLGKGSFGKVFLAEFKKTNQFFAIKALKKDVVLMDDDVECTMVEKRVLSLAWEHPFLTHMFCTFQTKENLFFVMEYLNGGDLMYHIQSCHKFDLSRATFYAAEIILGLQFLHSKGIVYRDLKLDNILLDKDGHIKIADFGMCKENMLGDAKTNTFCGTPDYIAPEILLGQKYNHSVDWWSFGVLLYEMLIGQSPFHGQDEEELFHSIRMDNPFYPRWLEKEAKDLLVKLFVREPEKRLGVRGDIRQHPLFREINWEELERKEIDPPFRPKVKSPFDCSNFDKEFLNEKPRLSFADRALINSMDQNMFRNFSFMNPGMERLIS
# CDK5/p35, sequence (Q00535 whole entry): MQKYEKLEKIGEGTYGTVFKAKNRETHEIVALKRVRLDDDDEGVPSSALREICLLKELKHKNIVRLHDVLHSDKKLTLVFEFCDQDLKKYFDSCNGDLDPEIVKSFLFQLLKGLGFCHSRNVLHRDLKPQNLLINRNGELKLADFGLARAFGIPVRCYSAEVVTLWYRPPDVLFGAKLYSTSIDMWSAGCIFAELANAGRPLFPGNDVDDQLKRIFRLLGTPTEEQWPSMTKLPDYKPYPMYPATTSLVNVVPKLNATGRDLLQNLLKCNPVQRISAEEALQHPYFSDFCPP
# CDK5/p35, sequence (Q15078 2-307 partner): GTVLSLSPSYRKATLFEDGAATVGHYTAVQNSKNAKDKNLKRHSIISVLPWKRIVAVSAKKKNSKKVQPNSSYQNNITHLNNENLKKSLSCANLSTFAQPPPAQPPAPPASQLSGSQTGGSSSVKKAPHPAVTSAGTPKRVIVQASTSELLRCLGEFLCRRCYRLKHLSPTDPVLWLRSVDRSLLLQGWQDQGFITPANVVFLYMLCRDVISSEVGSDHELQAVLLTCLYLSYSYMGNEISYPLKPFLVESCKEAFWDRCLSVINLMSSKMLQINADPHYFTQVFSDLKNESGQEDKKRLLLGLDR
# MKK4_m, sequence (P47809 whole entry): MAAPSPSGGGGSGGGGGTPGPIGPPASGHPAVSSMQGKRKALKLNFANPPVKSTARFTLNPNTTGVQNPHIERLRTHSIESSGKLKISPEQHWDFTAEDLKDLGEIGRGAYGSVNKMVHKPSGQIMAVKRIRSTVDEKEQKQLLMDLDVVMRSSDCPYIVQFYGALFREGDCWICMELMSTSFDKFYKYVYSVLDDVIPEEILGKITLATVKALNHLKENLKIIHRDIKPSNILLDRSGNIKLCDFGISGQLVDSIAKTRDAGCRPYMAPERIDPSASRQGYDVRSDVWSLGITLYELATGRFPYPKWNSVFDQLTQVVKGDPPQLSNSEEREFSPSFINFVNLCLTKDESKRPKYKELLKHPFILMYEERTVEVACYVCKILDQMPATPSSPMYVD
# EphA3, sequence (P29320 21-983): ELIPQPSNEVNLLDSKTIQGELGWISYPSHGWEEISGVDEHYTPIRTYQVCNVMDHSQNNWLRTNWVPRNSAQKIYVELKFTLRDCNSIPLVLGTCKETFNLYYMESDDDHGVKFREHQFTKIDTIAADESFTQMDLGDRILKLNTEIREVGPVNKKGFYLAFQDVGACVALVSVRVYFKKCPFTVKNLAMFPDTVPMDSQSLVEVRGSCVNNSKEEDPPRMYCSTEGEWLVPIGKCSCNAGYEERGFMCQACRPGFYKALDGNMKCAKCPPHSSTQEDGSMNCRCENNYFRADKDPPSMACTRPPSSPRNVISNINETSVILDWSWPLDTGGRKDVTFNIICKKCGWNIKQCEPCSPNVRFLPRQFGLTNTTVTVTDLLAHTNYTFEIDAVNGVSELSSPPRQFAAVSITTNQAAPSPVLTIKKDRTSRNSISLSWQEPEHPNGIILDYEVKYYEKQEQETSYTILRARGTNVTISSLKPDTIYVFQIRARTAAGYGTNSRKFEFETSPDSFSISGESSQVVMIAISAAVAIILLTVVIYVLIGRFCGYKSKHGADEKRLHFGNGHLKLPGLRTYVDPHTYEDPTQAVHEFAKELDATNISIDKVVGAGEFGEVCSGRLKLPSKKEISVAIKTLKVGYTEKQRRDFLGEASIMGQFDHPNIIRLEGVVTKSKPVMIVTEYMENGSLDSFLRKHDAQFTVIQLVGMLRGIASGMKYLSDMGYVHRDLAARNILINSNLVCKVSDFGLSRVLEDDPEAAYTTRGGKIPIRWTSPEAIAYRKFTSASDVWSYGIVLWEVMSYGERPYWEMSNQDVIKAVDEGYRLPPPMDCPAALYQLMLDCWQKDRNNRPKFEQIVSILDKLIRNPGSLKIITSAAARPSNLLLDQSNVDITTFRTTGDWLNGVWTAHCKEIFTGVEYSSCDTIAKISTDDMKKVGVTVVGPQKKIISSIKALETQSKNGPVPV
# IRAK4, sequence (Q9NWZ3 whole entry): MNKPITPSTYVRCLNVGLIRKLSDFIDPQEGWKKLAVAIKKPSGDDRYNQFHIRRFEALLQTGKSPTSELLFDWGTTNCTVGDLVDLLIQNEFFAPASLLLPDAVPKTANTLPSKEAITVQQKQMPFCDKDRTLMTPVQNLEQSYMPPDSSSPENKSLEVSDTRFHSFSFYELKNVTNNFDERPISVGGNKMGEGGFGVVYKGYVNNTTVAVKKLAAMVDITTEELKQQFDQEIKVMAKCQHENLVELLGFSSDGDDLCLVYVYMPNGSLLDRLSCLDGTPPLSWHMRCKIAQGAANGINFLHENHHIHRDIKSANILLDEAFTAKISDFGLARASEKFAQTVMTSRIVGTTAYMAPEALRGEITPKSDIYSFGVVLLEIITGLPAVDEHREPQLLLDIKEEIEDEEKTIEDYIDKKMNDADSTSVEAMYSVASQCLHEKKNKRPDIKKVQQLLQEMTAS
Avg POC (PKD2),Avg POC (PKCtheta),Avg POC (LOK),Avg POC (PRKG1beta),Avg POC (CDK5/p35),Avg POC (EphB3),Avg POC (CHK1),Avg POC (TEC Activated),Avg POC (DDR2),Avg POC (TSSK1),Avg POC (DCAMKL2),Avg POC (MAPKAP-K2),Avg POC (SRPK2),Avg POC (MKK4_m),Avg POC (Syk),Avg POC (STK33),Avg POC (MELK),Avg POC (CLK3),Avg POC (KDR),Avg POC (PKCalpha),SMILES,other results
101.5 POC,98.5 POC,109 POC,97.5 POC,113 POC,105.5 POC,114.5 POC,107 POC,100.5 POC,105 POC,105 POC,111 POC,96.5 POC,115 POC,86 POC,94 POC,110 POC,94 POC,116.5 POC,96 POC,"COCCN1C[C@@H](NC(=O)Nc2c(C)c(-c3ccnc(C)c3)nn2-c2ccccc2)[C@H](c2ccc(F)c(F)c2)C1 [Example 2, 1-((3S,4R)-4-(3,4-difluorophenyl)-1-(2-methoxyethyl)pyrrolidin-3-yl)-3-(4-methyl-3-(2-methylpyridin-4-yl)-1-phenyl-1H-pyrazol-5-yl)urea]",Avg POC (Tie2): 71.5 POC; Avg POC (ALK): 111 POC; Avg POC (IRAK4): 132 POC; Avg POC (Axl): 117 POC; Avg POC (SGK2): 99 POC; Avg POC (Abl-P): 113.5 POC; Avg POC (CDK7/cyclinH/MAT1): 88 POC; Avg POC (CSK): 113 POC; Avg POC (WNK3): 99 POC; Avg POC (Fes): 135.5 POC; Avg POC (EphB2): 109.5 POC; Avg POC (Rsk1): 111 POC; Avg POC (Flt4): 95 POC; Avg POC (PAK4): 103.5 POC; Avg POC (TLK2): 92.5 POC; Avg POC (CK1_y): 103 POC; Avg POC (EphA3): 101.5 POC; Avg POC (EGFR): 105.5 POC; Avg POC (CAMK2g): 89.5 POC; Avg POC (HIPK1): 96.5 POC
108 POC,98 POC,105 POC,101.5 POC,115.5 POC,138.5 POC,104.5 POC,83.5 POC,96 POC,104.5 POC,114.5 POC,101 POC,102.5 POC,116.5 POC,88 POC,103.5 POC,111.5 POC,94 POC,99 POC,93 POC,"COCCN1C[C@@H](NC(=O)Nc2c(C)c(-c3cnc(C)nc3)nn2-c2ccccc2)[C@H](c2cc(F)cc(F)c2)C1 [Example 14, 1-((3S,4R)-4-(3,5-difluorophenyl)-1-(2-methoxyethyl)pyrrolidin-3-yl)-3-(4-methyl-3-(2-methylpyrimidin-5-yl)-1-phenyl-1H-pyrazol-5-yl)urea]",Avg POC (Tie2): 71 POC; Avg POC (ALK): 102.5 POC; Avg POC (IRAK4): 110.5 POC; Avg POC (Axl): 103 POC; Avg POC (SGK2): 100 POC; Avg POC (Abl-P): 102.5 POC; Avg POC (CDK7/cyclinH/MAT1): 97.5 POC; Avg POC (CSK): 103 POC; Avg POC (WNK3): 96 POC; Avg POC (Fes): 125 POC; Avg POC (EphB2): 120 POC; Avg POC (Rsk1): 111.5 POC; Avg POC (Flt4): 92.5 POC; Avg POC (PAK4): 100.5 POC; Avg POC (TLK2): 93.5 POC; Avg POC (CK1_y): 97.5 POC; Avg POC (EphA3): 106.5 POC; Avg POC (EGFR): 96.5 POC; Avg POC (CAMK2g): 99 POC; Avg POC (HIPK1): 97.5 POC
